# ChEMBL document CHEMBL3044736, “Synthesis, characterization, solvatochromic properties, and antimicrobial evaluation of 5-acetyl-2-thioxo-dihydro-pyrimidine-4,6-dione-based chalcones” (2013)
# What was measured:
# Format in all cases: functional
# Klebsiella pneumoniae [1] = experiment: Antimicrobial activity against Klebsiella pneumoniae MTCC 109 by agar cup diffusion method
# Staphylococcus aureus [2] = experiment: Antimicrobial activity against Staphylococcus aureus MTCC 96 assessed as diameter of growth inhibition zone at 25 ug/ml after 18-24 hr by agar cup diffusion method; settings: read-out: DIZ
# Penicillium [3] = experiment: Antimicrobial activity against Penicillium wild strain assessed as diameter of growth inhibition zone at 100 ug/ml after 48-96 hr by agar cup diffusion method; settings: read-out: DIZ
# Trichophyton rubrum [4] = experiment: Antimicrobial activity against Trichophyton rubrum MTCC 296 assessed as diameter of growth inhibition zone at 50 ug/ml after 48-96 hr by agar cup diffusion method; settings: read-out: DIZ
# Escherichia coli [5] = experiment: Antimicrobial activity against Escherichia coli MTCC 443 by agar cup diffusion method
# Klebsiella pneumoniae [6] = experiment: Antimicrobial activity against Klebsiella pneumoniae MTCC 109 assessed as diameter of growth inhibition zone at 250 ug/ml after 18-24 hr by agar cup diffusion method; settings: read-out: DIZ
# Klebsiella pneumoniae [7] = experiment: Antimicrobial activity against Klebsiella pneumoniae MTCC 109 assessed as diameter of growth inhibition zone at 100 ug/ml after 18-24 hr by agar cup diffusion method; settings: read-out: DIZ
# Streptococcus pyogenes [8] = experiment: Antimicrobial activity against Streptococcus pyogenes MTCC 442 assessed as diameter of growth inhibition zone at 50 ug/ml after 18-24 hr by agar cup diffusion method; settings: read-out: DIZ
# Penicillium [9] = experiment: Antimicrobial activity against Penicillium wild strain assessed as diameter of growth inhibition zone at 25 ug/ml after 48-96 hr by agar cup diffusion method; settings: read-out: DIZ
# Escherichia coli [10] = experiment: Antimicrobial activity against Escherichia coli MTCC 443 assessed as diameter of growth inhibition zone at 250 ug/ml after 18-24 hr by agar cup diffusion method; settings: read-out: DIZ
# Streptococcus pyogenes [11] = experiment: Antimicrobial activity against Streptococcus pyogenes MTCC 442 assessed as diameter of growth inhibition zone at 25 ug/ml after 18-24 hr by agar cup diffusion method; settings: read-out: DIZ
# Candida albicans [12] = experiment: Antimicrobial activity against Candida albicans MTCC 227 assessed as diameter of growth inhibition zone at 50 ug/ml after 48-96 hr by agar cup diffusion method; settings: read-out: DIZ
# Pseudomonas aeruginosa [13] = experiment: Antimicrobial activity against Pseudomonas aeruginosa MTCC 1688 assessed as diameter of growth inhibition zone at 250 ug/ml after 18-24 hr by agar cup diffusion method; settings: read-out: DIZ
# Escherichia coli [14] = experiment: Antimicrobial activity against Escherichia coli MTCC 443 assessed as diameter of growth inhibition zone at 50 ug/ml after 18-24 hr by agar cup diffusion method; settings: read-out: DIZ
# Candida albicans [15] = experiment: Antimicrobial activity against Candida albicans MTCC 227 assessed as diameter of growth inhibition zone at 250 ug/ml after 48-96 hr by agar cup diffusion method; settings: read-out: DIZ
# Aspergillus clavatus [16] = experiment: Antimicrobial activity against Aspergillus clavatus MTCC 1323 by agar cup diffusion method
# Pseudomonas aeruginosa [17] = experiment: Antimicrobial activity against Pseudomonas aeruginosa MTCC 1688 assessed as diameter of growth inhibition zone at 100 ug/ml after 18-24 hr by agar cup diffusion method; settings: read-out: DIZ
# Trichophyton rubrum [18] = experiment: Antimicrobial activity against Trichophyton rubrum MTCC 296 assessed as diameter of growth inhibition zone at 250 ug/ml after 48-96 hr by agar cup diffusion method; settings: read-out: DIZ
# Penicillium [19] = experiment: Antimicrobial activity against Penicillium wild strain assessed as diameter of growth inhibition zone at 250 ug/ml after 48-96 hr by agar cup diffusion method; settings: read-out: DIZ
# Staphylococcus aureus [20] = experiment: Antimicrobial activity against Staphylococcus aureus MTCC 96 assessed as diameter of growth inhibition zone at 50 ug/ml after 18-24 hr by agar cup diffusion method; settings: read-out: DIZ
# Penicillium [21] = experiment: Antimicrobial activity against Penicillium wild strain by agar cup diffusion method
# Streptococcus pyogenes [22] = experiment: Antimicrobial activity against Streptococcus pyogenes MTCC 442 assessed as diameter of growth inhibition zone at 100 ug/ml after 18-24 hr by agar cup diffusion method; settings: read-out: DIZ
# Penicillium [23] = experiment: Antimicrobial activity against Penicillium wild strain assessed as diameter of growth inhibition zone at 50 ug/ml after 48-96 hr by agar cup diffusion method; settings: read-out: DIZ
# Trichophyton rubrum [24] = experiment: Antimicrobial activity against Trichophyton rubrum MTCC 296 assessed as diameter of growth inhibition zone at 100 ug/ml after 48-96 hr by agar cup diffusion method; settings: read-out: DIZ
# Escherichia coli [25] = experiment: Antimicrobial activity against Escherichia coli MTCC 443 assessed as diameter of growth inhibition zone at 25 ug/ml after 18-24 hr by agar cup diffusion method; settings: read-out: DIZ
# Trichophyton rubrum [26] = experiment: Antimicrobial activity against Trichophyton rubrum MTCC 296 by agar cup diffusion method
# Pseudomonas aeruginosa [27] = experiment: Antimicrobial activity against Pseudomonas aeruginosa MTCC 1688 assessed as diameter of growth inhibition zone at 25 ug/ml after 18-24 hr by agar cup diffusion method; settings: read-out: DIZ
# Staphylococcus aureus [28] = experiment: Antimicrobial activity against Staphylococcus aureus MTCC 96 assessed as diameter of growth inhibition zone at 100 ug/ml after 18-24 hr by agar cup diffusion method; settings: read-out: DIZ
# Aspergillus clavatus [29] = experiment: Antimicrobial activity against Aspergillus clavatus MTCC 1323 assessed as diameter of growth inhibition zone at 100 ug/ml after 48-96 hr by agar cup diffusion method; settings: read-out: DIZ
# Aspergillus clavatus [30] = experiment: Antimicrobial activity against Aspergillus clavatus MTCC 1323 assessed as diameter of growth inhibition zone at 25 ug/ml after 48-96 hr by agar cup diffusion method; settings: read-out: DIZ
# Streptococcus pyogenes [31] = experiment: Antimicrobial activity against Streptococcus pyogenes MTCC 442 assessed as diameter of growth inhibition zone at 250 ug/ml after 18-24 hr by agar cup diffusion method; settings: read-out: DIZ
# Staphylococcus aureus [32] = experiment: Antimicrobial activity against Staphylococcus aureus MTCC 96 assessed as diameter of growth inhibition zone at 250 ug/ml after 18-24 hr by agar cup diffusion method; settings: read-out: DIZ
# Pseudomonas aeruginosa [33] = experiment: Antimicrobial activity against Pseudomonas aeruginosa MTCC 1688 assessed as diameter of growth inhibition zone at 50 ug/ml after 18-24 hr by agar cup diffusion method; settings: read-out: DIZ
# Staphylococcus aureus [34] = experiment: Antimicrobial activity against Staphylococcus aureus MTCC 96 by agar cup diffusion method
# Candida albicans [35] = experiment: Antimicrobial activity against Candida albicans MTCC 227 by agar cup diffusion method
# Pseudomonas aeruginosa [36] = experiment: Antimicrobial activity against Pseudomonas aeruginosa MTCC 1688 by agar cup diffusion method
# Aspergillus clavatus [37] = experiment: Antimicrobial activity against Aspergillus clavatus MTCC 1323 assessed as diameter of growth inhibition zone at 50 ug/ml after 48-96 hr by agar cup diffusion method; settings: read-out: DIZ
# Trichophyton rubrum [38] = experiment: Antimicrobial activity against Trichophyton rubrum MTCC 296 assessed as diameter of growth inhibition zone at 25 ug/ml after 48-96 hr by agar cup diffusion method; settings: read-out: DIZ
# Candida albicans [39] = experiment: Antimicrobial activity against Candida albicans MTCC 227 assessed as diameter of growth inhibition zone at 25 ug/ml after 48-96 hr by agar cup diffusion method; settings: read-out: DIZ
# Klebsiella pneumoniae [40] = experiment: Antimicrobial activity against Klebsiella pneumoniae MTCC 109 assessed as diameter of growth inhibition zone at 25 ug/ml after 18-24 hr by agar cup diffusion method; settings: read-out: DIZ
# Escherichia coli [41] = experiment: Antimicrobial activity against Escherichia coli MTCC 443 assessed as diameter of growth inhibition zone at 100 ug/ml after 18-24 hr by agar cup diffusion method; settings: read-out: DIZ
# Streptococcus pyogenes [42] = experiment: Antimicrobial activity against Streptococcus pyogenes MTCC 442 by agar cup diffusion method
# Klebsiella pneumoniae [43] = experiment: Antimicrobial activity against Klebsiella pneumoniae MTCC 109 assessed as diameter of growth inhibition zone at 50 ug/ml after 18-24 hr by agar cup diffusion method; settings: read-out: DIZ
# Candida albicans [44] = experiment: Antimicrobial activity against Candida albicans MTCC 227 assessed as diameter of growth inhibition zone at 100 ug/ml after 48-96 hr by agar cup diffusion method; settings: read-out: DIZ
# Aspergillus clavatus [45] = experiment: Antimicrobial activity against Aspergillus clavatus MTCC 1323 assessed as diameter of growth inhibition zone at 250 ug/ml after 48-96 hr by agar cup diffusion method; settings: read-out: DIZ
smiles,measurement,setting,value
COc1ccc(/C=C/C(=O)C2C(=O)NC(=S)NC2=O)cc1,MBC,Klebsiella pneumoniae [1],250 µg/mL
same,MIC,Klebsiella pneumoniae [1],200 µg/mL
same,zone of inhibition at 25 µg/mL,Staphylococcus aureus [2],13 mm
same,zone of inhibition at 100 µg/mL,Penicillium [3],23 mm
same,zone of inhibition at 50 µg/mL,Trichophyton rubrum [4],20 mm
same,MBC,Escherichia coli [5],250 µg/mL
same,MIC,Escherichia coli [5],200 µg/mL
same,zone of inhibition at 250 µg/mL,Klebsiella pneumoniae [6],17 mm
same,zone of inhibition at 100 µg/mL,Klebsiella pneumoniae [7],14 mm
same,zone of inhibition at 50 µg/mL,Streptococcus pyogenes [8],18 mm
same,zone of inhibition at 25 µg/mL,Penicillium [9],21 mm
same,zone of inhibition at 250 µg/mL,Escherichia coli [10],21 mm
same,zone of inhibition at 25 µg/mL,Streptococcus pyogenes [11],15 mm
same,zone of inhibition at 50 µg/mL,Candida albicans [12],21 mm
same,zone of inhibition at 250 µg/mL,Pseudomonas aeruginosa [13],21 mm
same,zone of inhibition at 50 µg/mL,Escherichia coli [14],18 mm
same,zone of inhibition at 250 µg/mL,Candida albicans [15],24 mm
same,MFC,Aspergillus clavatus [16],1000 µg/mL
same,MIC,Aspergillus clavatus [16],500 µg/mL
same,zone of inhibition at 100 µg/mL,Pseudomonas aeruginosa [17],18 mm
same,zone of inhibition at 250 µg/mL,Trichophyton rubrum [18],22 mm
same,zone of inhibition at 250 µg/mL,Penicillium [19],25 mm
same,zone of inhibition at 50 µg/mL,Staphylococcus aureus [20],17 mm
same,MFC,Penicillium [21],500 µg/mL
same,MIC,Penicillium [21],500 µg/mL
same,zone of inhibition at 100 µg/mL,Streptococcus pyogenes [22],20 mm
same,zone of inhibition at 50 µg/mL,Penicillium [23],21 mm
same,zone of inhibition at 100 µg/mL,Trichophyton rubrum [24],21 mm
same,zone of inhibition at 25 µg/mL,Escherichia coli [25],15 mm
same,MFC,Trichophyton rubrum [26],> 1000 µg/mL
same,MIC,Trichophyton rubrum [26],> 1000 µg/mL
same,zone of inhibition at 25 µg/mL,Pseudomonas aeruginosa [27],13 mm
same,zone of inhibition at 100 µg/mL,Staphylococcus aureus [28],18 mm
same,zone of inhibition at 100 µg/mL,Aspergillus clavatus [29],23 mm
same,zone of inhibition at 25 µg/mL,Aspergillus clavatus [30],20 mm
same,zone of inhibition at 250 µg/mL,Streptococcus pyogenes [31],21 mm
same,zone of inhibition at 250 µg/mL,Staphylococcus aureus [32],21 mm
same,zone of inhibition at 50 µg/mL,Pseudomonas aeruginosa [33],17 mm
same,MBC,Staphylococcus aureus [34],250 µg/mL
same,MIC,Staphylococcus aureus [34],200 µg/mL
same,MFC,Candida albicans [35],1000 µg/mL
same,MIC,Candida albicans [35],> 1000 µg/mL
same,MBC,Pseudomonas aeruginosa [36],125 µg/mL
same,MIC,Pseudomonas aeruginosa [36],100 µg/mL
same,zone of inhibition at 50 µg/mL,Aspergillus clavatus [37],21 mm
same,zone of inhibition at 25 µg/mL,Trichophyton rubrum [38],19 mm
same,zone of inhibition at 25 µg/mL,Candida albicans [39],18 mm
same,zone of inhibition at 25 µg/mL,Klebsiella pneumoniae [40],11 mm
same,zone of inhibition at 100 µg/mL,Escherichia coli [41],20 mm
same,MBC,Streptococcus pyogenes [42],250 µg/mL
same,MIC,Streptococcus pyogenes [42],200 µg/mL
same,zone of inhibition at 50 µg/mL,Klebsiella pneumoniae [43],13 mm
same,zone of inhibition at 100 µg/mL,Candida albicans [44],24 mm
same,zone of inhibition at 250 µg/mL,Aspergillus clavatus [45],24 mm
